{
  "source": "patent US20240316050A1",
  "about": "(OXFORD UNIVERSITY INNOVATION LIMITED, priority 2020, published 2024)",
  "key": {"HUVECs [1]": {"test_system": "HUVECs", "experiment": "Intracellular BH4 and biopterins by HPLC in HUVECs", "format": "cell-based, human", "description": "(§1) Umbilical cords were collected at birth and human umbilical vein endothelial cells (HUVECs) were isolated and stored in liquid nitrogen according to standard operating procedures within a research tissue bank (Oxford Cardiovascular Tissue Bioresource; ethical approval 09/[…]/68, 07/[…]/148 and 11/SC/0230). For the purpose of the current study, HUVECs were identified from normotensive pregnancies and pregnancies complicated by preeclampsia, matched for maternal age and gestation. HUVECs and human uterine microvascular endothelial cells (HutMECs; Cat C-12295, Promocell) were cultured in EBM2 (endothelial basal medium) with bullet kit as recommended (Cat CC-3162, Lonza). All cell cultures were maintained in humidified 5% CO2 at 37° C. Primary HUVEC and HutMEC cells, obtained between passages 1-3 were and passages 4-6, respectively, were used for all experiments. sEnd.1 endothelial cells were grown in Dulbecco's modified Eagle's medium (Invitrogen) supplemented with glutamine (2 mmol/liter), penicillin (100 units/ml), and streptomycin (0.1 mg/ml)."}, "people with PKU": {"test_system": "people with PKU", "details": "most people with PKU; cited from earlier work"}, "[2]": {"experiment": "Plasma and uterine artery biopterins by HPLC in treated pregnant mice", "details": "for systemic oxidation of BH4 to BH2: Gch1 deficient and control mice, oral supplementation", "quoted_text": "After centrifugation at 13,200 rpm for 10 min at 4° C., supernatant was removed and ice-cold acid precipitation buffer (1 M phosphoric acid, 2 M trichloroacetic acid, 1 mM dithioerythritol) was added. Following centrifugation at 13,200 rpm for 10 min at 4° C., the supernatant was removed and injected onto the HPLC system."}, "uterine arteries": {"test_system": "uterine arteries", "experiment": "Wire myography of isolated uterine arteries with inhibitors in the bath", "design": "species or system mouse", "description": "All drugs used were purchased from Sigma Chemical Company."}, "HUVECs [3]": {"test_system": "HUVECs", "experiment": "Matrigel endothelial tube formation, HUVECs from NT and PE pregnancies", "format": "cell-based, human", "details": "sepiapterin 1 μM", "description": "Umbilical cords were collected at birth and human umbilical vein endothelial cells (HUVECs) were isolated and stored in liquid nitrogen according to standard operating procedures within a research tissue bank (Oxford Cardiovascular Tissue Bioresource; ethical approval 09/H0606/68, 07/H0606/148 and 11/SC/0230). For the purpose of the current study, HUVECs were identified from normotensive pregnancies and pregnancies complicated by preeclampsia, matched for maternal age and gestation. HUVECs and human uterine microvascular endothelial cells (HutMECs; Cat C-12295, Promocell) were cultured in EBM2 (endothelial basal medium) with bullet kit as recommended (Cat CC-3162, Lonza). All cell cultures were maintained in humidified 5% CO2 at 37° C. […]\nTo assess tube formation ability of endothelial cells, a 96-well plate was evenly coated with 50 μl of growth factor-reduced Matrigel (BD Biosciences, UK). […] Images were saved as TIFF files, and tube formation analysed using AngioSys 1.0 (TCS Cell Works, UK). […] The total length of lines was quantified in pixels (then converted to micrometers) and total number of branch points was recorded."}, "[4]": {"test_system": "human uterine microvascular endothelial cells (HutMECs)", "experiment": "Matrigel endothelial tube formation, HutMECs with GCH1 siRNA", "format": "cell-based", "details": "HutMECs treated with GCH1 siRNA; sepiapterin 1 μM", "method": "(§2) To assess tube formation ability of endothelial cells, a 96-well plate was evenly coated with 50 μl of growth factor-reduced Matrigel (BD Biosciences, UK). Endothelial cells were plated at a density of 1×10^4 cells per well. The plate was incubated at 37° C. for 16 hours before photomicroscopy. Each sample was replicated in triplicate and the image of each well was taken at ×4 magnification using a Nikon Eclipse TE2000-U microscope (Nikon Ltd, London, UK). Images obtained from Matrigel assay were adjusted for mean brightness using acquisition software to control the bright field illumination of the microscope (Simple PCI version 6.6.0.0; Hamamatsu Corporation, Sewickley, PA). Images were saved as TIFF files, and tube formation analysed using AngioSys 1.0 (TCS Cell Works, UK). Image threshold was adjusted based on the intensity values of the monochrome image and each image then skeletonized to reduce to one pixel wide. […] The total length of lines was quantified in pixels (then converted to micrometers) and total number of branch points was recorded.\n(§3) GCH1-specific, ON-TARGETplus SMARTpool siRNA was purchased from Dharmacon Thermo Scientific. […] The cells were cultured for 72 h, and gene silencing was detected by analysis of GTPCH protein expression by Western blotting using GTPCH-specific antibodies (a gift from S.Gross, Cornell University New York), in cells using standard protocols."}, "[5]": {"test_system": "sEND.1 mouse endothelial cell line", "experiment": "Matrigel endothelial tube formation, sEND.1 cells with Gch1 siRNA", "format": "cell-based", "details": "sEND.1 treated with specific Gch1 siRNA; sepiapterin 1 μM", "method": "as §2, §3"}, "[6]": {"molecular_target": "T1, endothelial nitric oxide synthase (eNOS) (Homo sapiens, UniProt P29474)", "T1 construct": "endogenous in cells; host or cells: primary HUVECs (passages 1-3) from normotensive and pre-eclamptic pregnancies", "experiment": "NO synthesis by eNOS (14C arginine to citrulline conversion) in HUVECs", "format": "cell-based", "details": "HUVECs from NT and PE pregnancies; sepiapterin 1 μM", "from_the_text": "Umbilical cords were collected at birth and human umbilical vein endothelial cells (HUVECs) were isolated and stored in liquid nitrogen according to standard operating procedures within a research tissue bank (Oxford Cardiovascular Tissue Bioresource; ethical approval 09/H0606/68, 07/H0606/148 and 11/SC/0230). For the purpose of the current study, HUVECs were identified from normotensive pregnancies and pregnancies complicated by preeclampsia, matched for maternal age and gestation. […] All cell cultures were maintained in humidified 5% CO2 at 37° C.\nNO synthesis by eNOS was assessed by conversion of ^14C L-arginine to citrulline, in the presence and absence of N-monomethyl-L-arginine (1 mM, Sigma), as described previously^9. Briefly, HUVES were incubated for 4 hours at 37° C. in 200 μl Krebs-HEPES buffer containing ^14C L-arginine (2 μl of 50 μCi/mL). Samples were run on a SCX 300 cation exchange HPLC column (Sigma) with online scintillation detection. Background signals were corrected from samples with ^14C L-arginine alone without cells."}, "[7]": {"test_system": "sEnd.1 murine endothelial cells", "experiment": "Intracellular BH4 and biopterins by HPLC in sEnd.1 cells", "format": "cell-based, mouse", "description": "as §1, with “mg/ml). GCH1-specific, ON-TARGETplus SMARTpool siRNA was purchased from Dharmacon Thermo Scientific. […] The cells were cultured for 72 h, and gene silencing was detected by analysis of GTPCH protein expression by Western blotting using GTPCH-specific antibodies (a gift from S.Gross, Cornell University New York), in cells using standard protocols.” for “mg/ml).”"}, "women with pre-eclampsia": {"test_system": "women with pre-eclampsia", "details": "folic acid supplementation, clinical trials; cited from earlier work"}, "sEnd.1 cells": {"test_system": "sEnd.1 cells", "experiment": "Superoxide and ROS production by DHE HPLC in sEnd.1 cells", "format": "cell-based, mouse", "details": "folic acid 10 μm, 16 h (FIG. 33)", "quoted_text": "Measurement of 2-hydroxyethidium formation by HPLC was used to quantify superoxide production, as previously described. Briefly, the cells were washed three times in PBS and incubated in Krebs-Hepes buffer in the presence or absence of I-NAME (100 μm). After 30 min, dihydroethidium (25 μm) was added, and the cells were then incubated for an additional 20 min at 37° C. The cells were then harvested by scraping, centrifuged, and lysed in ice-cold methanol. Hydrochloric acid (100 mm) was added (1:1 v/v) prior to loading into the autosampler for analysis. All of the samples were stored in darkened tubes and protected from light at all times. Separation of ethidium, oxyethidium, and dihydroethidium was performed using a gradient HPLC system (Jasco) with an ODS3 reverse phase column (250 mm, 4.5 mm; Hichrom), and quantified using a fluorescence detector set at 510 nm (excitation) and 595 nm (emission). A linear gradient was applied from Mobile phase A (0.1% TFA (v/v)) to Mobile phase B (0.1% TFA (v/v) in acetonitrile) over 23 min (30% acetonitrile to 50% acetonitrile)."}, "[8]": {"molecular_target": "T2, endothelial nitric oxide synthase (eNOS) (Mus musculus, UniProt P70313)", "T2 construct": "Conversion of 14C arginine to 14C citrulline was used as a measure of endothelial nitric oxide synthase activity (eNOS); endogenous in cells; host or cells: sEnd.1 murine endothelial cell line", "experiment": "eNOS activity (14C arginine to 14C citrulline) in sEnd.1 cells", "format": "cell-based", "details": "5MTHF 10 μm, 16 h (FIG. 34)"}, "Gch1^fl/flTie2cre mice": {"test_system": "Gch1^fl/flTie2cre mice", "experiment": "Systolic blood pressure by tail-cuff plethysmography in pregnant mice", "details": "oral 5-MTHF begun at day 10.5 or 16.5", "quoted_text": "Female Gch1^fl/flTie2cre mice and their Gch1^fl/fl littermates (thereafter referred to as wild-type) were used for all experiments at 10 to 16 weeks.\nSystolic blood pressure and heart rate was determined using a computerized tail-cuff system (Visitech, USA) in conscious mice^6. Experiments were performed between the hours of 8 and 12 am. The animal tails were passed through a cylindrical latex tail-cuff and taped down to reduce movement. Twenty readings were taken per mouse of which the first 5 readings were discarded. The remaining 15 readings were used to calculate the mean systolic blood pressure and heart rate in each mouse."}},
  "note": "Entries after “also recorded” stand apart in the source; their conditions may differ. Structures can show the parent of a compound that is named as a salt.",
  "data": [
    {"smiles": "CN1c2c([nH]c(N)nc2=O)NC[C@@H]1CNc1ccc(C(=O)N[C@@H](CCC(=O)O)C(=O)O)cc1", "note": "[Arcofolin]", "values": [
      {"measurement": "BH4 levels", "setting": "HUVECs [1]; HUVECs from pregnancies with high blood pressure, 5MTHF 10 μm, 16 h at 37° C. (FIG. 36)", "value": "increases"}
    ]},
    {"smiles": "C[C@H](O)[C@H](O)[C@H]1CNc2nc(N)[nH]c(=O)c2N1", "note": "[sapropterin dihydrochloride]", "values": [
      {"measurement": "clinical benefit in PKU", "setting": "people with PKU", "value": "little or no benefit"}
    ]},
    {"smiles": "C[C@H](O)[C@H](O)[C@H]1CNc2nc(N)[nH]c(=O)c2N1", "note": "[BH4, tetrahydrobiopterin]", "values": [
      {"measurement": "systemic oxidation of BH4 to BH2", "setting": "[2]", "value": "rapidly oxidised"},
      {"measurement": "BH4/BH2+B (total biopterins) ratio", "setting": "[2]; pregnant mice, E18.5, oral BH4 200 mg/kg/day", "value": "reduction"},
      {"measurement": "plasma BH4 levels", "setting": "[2]; pregnant mice, E18.5, oral in chow from 3 days before timed matings, BH4 200 mg/kg/day, 5-MTHF 15 mg/kg/day", "value": "increased"}
    ]},
    {"smiles": "COc1ccc2c(c1)c(CC(=O)O)c(C)n2C(=O)c1ccc(Cl)cc1", "note": "[indomethacin]", "values": [
      {"measurement": "endothelium-dependent vasodilation to ACh in the presence of inhibitors", "setting": "uterine arteries; uterine arteries, pregnant or non-pregnant wild-type and Gch1^fl/flTie2cre mice, indomethacin 10 μM, apamin 50 nM, charybdotoxin 100 nM", "value": "minimal effect"}
    ]},
    {"smiles": "C[C@H](O)C(=O)C1=Nc2c(nc(N)[nH]c2=O)NC1", "note": "[sepiapterin]", "values": [
      {"measurement": "endothelial cell growth and tubule formation", "setting": "HUVECs [3]", "value": "restored; also recorded: rescued"},
      {"measurement": "endothelial cell growth and tubule formation", "setting": "[4]", "value": "rescued"},
      {"measurement": "endothelial cell growth and tubule formation", "setting": "[5]", "value": "fully restored; also recorded: rescued"},
      {"measurement": "eNOS activity", "setting": "[6]", "value": "normalized; also recorded: significantly increased"},
      {"measurement": "BH4 levels", "setting": "[7]; sEND.1 treated with specific Gch1 siRNA, sepiapterin 1 μM", "value": "increased"},
      {"measurement": "BH4 levels", "setting": "HUVECs [1]; HUVECs from hypertensive/pre-eclamptic pregnancies, sepiapterin 1 μM", "value": "normalized"}
    ]},
    {"smiles": "Nc1nc2ncc(CNc3ccc(C(=O)N[C@@H](CCC(=O)O)C(=O)O)cc3)nc2c(=O)[nH]1", "note": "[folic acid]", "values": [
      {"measurement": "clinical benefit in pre-eclampsia", "setting": "women with pre-eclampsia", "value": "no benefit"},
      {"measurement": "BH4 levels", "setting": "[7]; sEnd.1 cells, folic acid 10 μm, 16 h at 37° C., with or without MTX 1 μm (FIG. 28)", "value": "no effect"},
      {"measurement": "generation of reactive oxygen species (ROS)", "setting": "sEnd.1 cells", "value": "increased"}
    ]},
    {"smiles": "COC(=O)[C@@H](N)CCCNC(=N)N[N+](=O)[O-]", "note": "[L-NAME]", "values": [
      {"measurement": "ACh vasorelaxations in the presence of L-NAME", "setting": "uterine arteries; Gch1^fl/flTie2cre uterine arteries, L-NAME 100 μM", "value": "did not significantly inhibit"},
      {"measurement": "vasoconstriction response to U46619 in the presence of L-NAME", "setting": "uterine arteries; uterine arteries of pregnant Gch1^fl/flTie2cre mice, L-NAME 100 μM", "value": "unchanged"},
      {"measurement": "vasoconstriction response to U46619 in the presence of L-NAME", "setting": "uterine arteries; uterine arteries of pregnant wild-type mice, L-NAME 100 μM", "value": "increased"},
      {"measurement": "activity of endothelial nitric oxide synthase (L-arginine to L-citrulline conversion)", "setting": "[8]", "value": "inhibited"}
    ]},
    {"smiles": "CN1c2c(nc(N)[nH]c2=O)NC[C@@H]1CNc1ccc(C(=O)N[C@@H](CCC(=O)O)C(=O)O)cc1", "note": "[5-MTHF, 5-methyltetrahydrofolate]", "values": [
      {"measurement": "systemic oxidation of BH4 to BH2", "setting": "[2]", "value": "prevented"},
      {"measurement": "time from initiation of treatment to reduction in blood pressure", "setting": "Gch1^fl/flTie2cre mice", "value": "≤ 2", "unit": "days"}
    ]}
  ]
}
